The subject of data set [1] is R-1 cells (Rhabdomyosarcoma Cells). Briefly: R-1 activity (bioliquid assay), cytotoxicity. In kind it is cell-based. The conditions noted are these: Rhabdomyosarcoma cell. The gist of the method:
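Rhabdomyosarcoma R-1 cells (~10^6 per dish) in Dulbecco's medium with 10% FCS were exposed to drug solution, which was then replaced by fresh medium. Cells were trypsinized after 48 hours and counted electronically.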

Data set [2] concerns L1210 cells. Briefly: L1210 activity (bioliquid assay), cytotoxicity. In kind it is cell-based. The conditions noted are these: Mus musculus. The gist of the method: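 Suspension culture in RPMI with 15% FCS and 2-mercaptoethanol (60 μmol). Continuous compound exposure for 48 hours at 37° C under 5% CO2 in humidified air. Cell numbers then counted on an electronic microcell counter.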

The subject of data set [3] is L1210 cells. Briefly: L1210 activity in clonogenic assay (TNO Rijswijk). To be noted: Mus musculus, L1210, 192 h, read-out: ID-50 L1210, clonogenic assay. In kind it is cell-based. From the text:
The indoloquinones II (formula II) have been tested in respect of their cytotoxic activity against L1210 cells and R-1 cells (Rhabdomyosarcoma Cells) in a bioliquid assay at the department of oncology of the Free University of Amsterdam (Table I). In addition to this seven compounds (E.O. 1, E.O. 2, E.O. 4, E.O. 7, E.O. 9, E.O. 16 and E.O. 17) have been tested on L1210 activity in a clonogenic assay at TNO, Rijswijk. Further, the lowest active doses of the compounds E.O. 1, E.O. 2, E.O. 4 and E.O. 9 have been determined at TNO Rijswijk, according to the method described by Lamberts et al. [Oncology, 40, 301 (1983)]. (Table II). Eight indoloquinones (E.O. 1, E.O. 2, E.O. 4, E.O. 4A, E.O. 8, E.O. 9, E.O. 33 and E.O. 35) have been tested in a panel of five human tumour lines (TNO Rijswijk; Table III). From the latter group three indoloquinones (E.O. 1, E.O. 4 and E.O. 9) have been selected for a cytotoxicity study, involving five slowly growing human tumour lines (University of Freiburg; Table IV).
The L1210 clonogenic assay used was an improved variant of the method described earlier by H. MARTIN et al. [Cancer Chemother., Rep., 51 451 (1967)] and L. M. van Putten et al. [Cancer Treat. Rep., 60, 373 (1976)] for the growth into colonies of L1210 cells in a soft agar medium. From a suspension culture ~100 L1210 Cells (0.1 ml) were plated into […] culture dishes (Falcon), containing 1 ml of soft agar growth medium and the compound to be tested in appropriate concentrations. The soft agar growth medium consisted of Dulbecco medium supplemented with 15.8% horse serum, 60 μmol 2-mercapto-ethanol, 20 mg/ml L-asparagine and 0.3% bacto agar (Difco).
The culture dishes were incubated at 37° C. in an atmosphere of 1% CO2 in humidified air for 8 days. After this period of continuous drug exposure, colonies were counted and dose-effect curves were made.

Another data set relates to lung-NSCLC tumour line. Briefly: Colony inhibition in vitro, continuous drug exposure (Freiburg). In kind it is cell-based, human. The conditions noted are these: for activity at 1 µg/mL: 1.0 μg/ml. How it is done:
Three indoloquinones were tested at the University of Freiburg with respect to their in vitro inhibition of colony formation of the following five human tumour cell lines: lung-NSCLC, breast, renal and two colon lines.

Data set [4] in a line: Half-wave reduction potentials / polarography (University of Utrecht). In kind it is physicochemical. In short, it runs like this: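 Polarographic half-wave potentials (E1/2) measured; only the first, quinone, reduction potential is reported.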
Another data set in a line: in vivo. Details: species or system mice. To be noted: mouse, IP, single dose, suspension in carboxymethyl cellulose (2%). How it is done:
The acute toxicity experiments were carried out with male C5 Black/Rij X CBA/Rij Fl hybrid mice at TNO, Rijswijk. The drugs were administrated IP as suspensions in carboxymethyl cellulose (2%) as a single dose at the first day.

In another data set the test system is P 388 tumour cells. Put plainly: In vivo P388 experiments (Brussels). Also on record: species or system mice. To be noted: for MAX T/C: days 1 to 5. How it is done: These experiments were carried out at the Institute Jules Bordet, Brussels, on CDF, female mice. The mice were inoculated intraperitoneally (IP) with 1×10^6 P 388 tumour cells. After 24 hours, the compounds were administrated as suspensions in "Tween-80" or using saline as vehicle. Six mice were used at each dose of the compound, given on days 1 to 5 and eighteen control mice were injected with saline.

The test system of another data set is Renal line (RXF 423). Briefly: Human tumour xenograft in nude mice: renal. In kind it is in vivo. The conditions noted are these: i.v. days 22 and 29, 4 and 6 mg/kg. From the text:
Based on the results obtained during the in vitro experiments indoloquinone E.O. 9 was selected for an extended in vivo study. The activity of this compound has been determined in four human tumour xenografts transplanted in nude mice.
The xenograft experiments have been carried by Dr. H. H. Fiebig of the University of Freiburg [Lung-NSCLC (LXGF) line, Renal line, Breast line; See: H. H. Fiebig et al., Behring Inst. Mitt., 74 343] and by Dr. E. Boven of the Free University Hospital Amsterdam [Ovarian (MRI-H-207) line; See: E. Boven et al., Cancer Res., 45, 86 (1985) and E. Boven et al., Eur. J. Clin. Oncol., 21, 1253 (1985)].
The tumour was transplanted s.c. and E.O. 9 was administrated i.v. on days 22 and 29 after transplantation at a dose of 4 and 6 mg/kg.
In general terms: A xenograft is tissue or cells of one species grown in another, often human tumour cells in immunodeficient mice.

[5] abbreviates: Table I, bioliquid assay, read-out: ID-50 R-1.
[6] abbreviates: 8 days continuous exposure, TNO Rijswijk.
[7] abbreviates: Homo sapiens, 0.01 μg/ml, read-out: colony formation treated/control (T/C), Lung.
The mark [8] stands for this setting: Homo sapiens, 0.1 μg/ml, read-out: colony formation treated/control (T/C), Lung.
[9] abbreviates: Homo sapiens, read-out: colony formation treated/control (T/C), Lung.
The mark [10] stands for this setting: L1210, Table I, bioliquid assay, 48 hours, read-out: ID-50 L1210.

Structures are written as SMILES. Converted amounts (≈) assume the structure as drawn. Where two headings read alike, the source gives them in different places.

The text below walks through data of patent US5079257A, “Indoloquinone compounds” (priority 1986, dated 1992).

As for `Cn1c(/C=C/CO)c(CO)c2c1C(=O)C=C(N1CC1)C2=O` [E.O. 9, 5-Aziridino-3-hydroxymethyl-1-methyl-2-[1H-indole-4,7-dione]prop-β-en-α-ol], the IC50 in data set [1] (setting [5]) amounted to 0.003 µg/mL (≈ 0.0104 µM); in data set [1] (Table VIII, read-out: ID-50 R-1), 0.0034 µg/mL (≈ 0.0118 µM); with L1210 cells [2] (L1210, 48 h, Table VIII, read-out: ID-50 L1210), 0.46 µg/mL (≈ 1.6 µM); with L1210 cells [3] (setting [6]) it was 0.8 µg/mL (≈ 2.77 µM). For the same compound, the “activity against the lung cell line” value in the data set on lung-NSCLC tumour line (0.01 μg/ml) was “active”. In addition, the activity at 0.01 µg/mL in the data set with lung-NSCLC tumour line (setting [7]) was determined as 0%. Besides, the activity at 0.1 µg/mL in the data set with lung-NSCLC tumour line (setting [8]) was 0%. Moreover, the activity at 1 µg/mL in the data set on lung-NSCLC tumour line (setting [9]) stood at 0%. In data set [4] (pH = 8 vs Ag/AgCl), the “half-wave potential E1.2, wave I” value is reported as -370 mV. Further, in data set [4] (pH = 8 vs Ag/AgCl), the “half-wave potential E1.2, wave II” value is recorded as -785 mV. Further, the LD50 – broadly, the dose at which mortality reaches 50% – in “in vivo” amounted to 10 mg/kg. Besides, the “MAX T/C” value with P 388 tumour cells (1.5 mg/kg) came out at 106%. Moreover, the “growth inhibition” value with Renal line (RXF 423) is “No significant growth inhibition”.
In the case of `COC1=CC(=O)c2c(c(COC(C)=O)c(/C=C/COC(C)=O)n2C)C1=O` [E.O. 1, 3-Acetoxymethyl-5-methoxy-1-methyl-2-[1H-indole-4,7-dione]prop-β-en-α-yl acetate], the IC50 in data set [1] (setting [5]) came out at 2.3 µg/mL; in data set [1] (Table VI, read-out: ID-50 R-1), 0.3 µg/mL; with L1210 cells [2] (setting [10]) it was 2.3 µg/mL; with L1210 cells [3] (setting [6]), 2.5 µg/mL. In the data set with lung-NSCLC tumour line (setting [7]), the activity at 0.01 µg/mL worked out at 48%. The activity at 0.1 µg/mL in the data set with lung-NSCLC tumour line (setting [8]) was found to be 4%. Further, the activity at 1 µg/mL in the data set with lung-NSCLC tumour line (setting [9]) was 0%. Besides, in data set [4] (DC-polarography), the “direct current polarogram” value is on record as “two or more reduction waves”. The “half-wave potential E1.2, wave I” value in data set [4] (pH = 8 vs Ag/AgCl) is listed as -367 mV. The “half-wave potential E1.2, wave III” value in data set [4] (pH = 8 vs Ag/AgCl) is given as -435 mV. The “half-wave potential E1.2, wave IV” value in data set [4] (pH = 8 vs Ag/AgCl) is listed as -775 mV. Besides, in “in vivo”, the LD50 was in the range of 10 to 30 mg/kg. Further, in the data set with P 388 tumour cells (75 mg/kg), the “MAX T/C” value worked out at 105%.
Regarding `COC(=O)OC/C=C/c1c(COC(=O)OC)c2c(n1C)C(=O)C=C(OC)C2=O` [E.O. 2, Methyl 5-methoxy-3-methoxycarbonyloxymethyl-1-methyl-2-[1H-indole-4,7 dione]prop-β-en-α-yl carbonate], the IC50 came out at 0.4 µg/mL (≈ 1.02 µM) in data set [1] (setting [5]), 0.5 µg/mL (≈ 1.27 µM) in the data set with L1210 cells [2] (setting [10]) and 3.7 µg/mL (≈ 9.41 µM) with L1210 cells [3] (setting [6]). In “in vivo”, this compound came in with an LD50 of 30 to 100 mg/kg. In the data set with P 388 tumour cells (10 mg/kg), the “MAX T/C” value was determined as 120%.
As to `CC(=O)OC/C=C/c1c(COC(C)=O)c2c(n1C)C(=O)C=C(N1CC1)C2=O` [E.O. 4, 3-Acetoxymethyl-5-aziridino-1-methyl-2-[1H-indole-4,7-dione]prop-β-en-α-yl acetate], the IC50 in data set [1] (read-out: ID-50 R-1, Table VIII) was determined as 0.025 µg/mL. The IC50 with L1210 cells [2] (L1210, 48 h, read-out: ID-50 L1210, Table VIII) came to 1.6 µg/mL. The IC50 in the data set on L1210 cells [3] is < 1 µg/mL. The “activity against the lung cell line” value in the data set on lung-NSCLC tumour line (0.01 μg/ml) was “active”. In the data set with lung-NSCLC tumour line (setting [9]), the activity at 0.001 µg/mL worked out at 64%, the activity at 0.01 µg/mL was found to be 8% and the activity at 0.1 µg/mL is 0%. Also, the “MAX T/C” value with P 388 tumour cells (10 mg/kg) was 135%. Also, the T/C (in general, the result in the treated group divided by that in the control group, in per cent) at the optimal dose in the data set with P 388 tumour cells (optimal dose) is on record as ~130%.
